Test results from patent US20230337674A1, “FUNGICIDAL COMPOSITIONS” (SYNGENTA CROP PROTECTION AG, priority 2020, published 2023).
Where “and” joins values, the source holds several entries; their conditions need not be identical. Equal entries are not always repeated. Where two headings read alike, the source gives them in different places.

Columns and labels:
Phakopsora pachyrhizi = Phakopsora pachyrhizi on leaf disks from treated whole soybean plants; assay type: in vivo; conditions: evaluation 11 to 14 days after inoculation; for inhibition at 0.5 g/ha / inhibition at 1 g/ha / inhibition at 2 g/ha / inhibition at 0.25 g/ha: Phakopsora pachyrhizi, foliar
Procedure: Phakopsora pachyrhizi (Soybean Rust):
Whole soybean plants are treated with the recited active ingredients 4 weeks after planting. 1 day after spraying leaf disks are cut from the first trifoliate leaf. Five repetitions at each rate are conducted. The leaf disks are inoculated with Phakopsora pachyrhizi (Asian soybean rust) one day after treatment. Evaluation of the leaf disks is conducted 11 to 14 days after inoculation and the activity is derived from the relation of the treated vs untreated, infested check. The rates of the active ingredients used are given in Table as g active ingredient (a.i.)/ha.

Septoria tritici = Septoria tritici growth inhibition in nutrient broth (microtiter plate); assay type: cell-based; conditions: Zymoseptoria tritici, read-out: Observed Activity (%)
Procedure: Septoria tritici (Leaf Blotch):
(§1) Conidia of the fungus from cryogenic storage were directly mixed into nutrient broth (PDB potato dextrose broth). A DMSO solution of the test compounds was placed into a microtiter plate (96-well format) and the nutrient broth containing the fungal spores was added to it. The test plates were incubated at 24° C. and the inhibition of growth was determined photometrically after 72 hrs.

Corynespora cassiicola = Corynespora cassiicola growth inhibition in nutrient broth (microtiter plate); assay type: cell-based; conditions: read-out: Observed Activity (%)
Procedure: Corynespora cassiicola (Target Spot of Soybean, Target Leaf Spot of Tomato):
as §1, with “3-4 days at 620 nm.” for “72 hrs.”

[1] = single active, 0.5 g/ha, read-out: Observed Activity (%)
[2] = single active, read-out: Observed Activity (%)

For `O=C(Nc1ccccc1F)c1ccc(-c2noc(C(F)(F)F)n2)cc1` [Compound A-1.3, N-(2-fluorophenyl)-4-[5-(trifluoromethyl)-1,2,4-oxadiazol-3-yl]benzamide], the inhibition at 0.5 g/ha (Phakopsora pachyrhizi; [1]) was 0%, the inhibition at 1 g/ha (Phakopsora pachyrhizi; [2]) was 29% and the inhibition at 2 g/ha (Phakopsora pachyrhizi; [2]) was 78%.
For `CNC(=O)C(F)(F)c1ccc(-c2noc(C(F)(F)F)n2)cc1` [Compound A-1.1, 2,2-difluoro-N-methyl-2-[4-[5-(trifluoromethyl)-1,2,4-oxadiazol-3-yl]phenyl]acetamide], the inhibition at 0.25 g/ha (Phakopsora pachyrhizi; single active, 0.25 g/ha, read-out: Observed Activity (%)) was 0%, the inhibition at 0.5 g/ha (Phakopsora pachyrhizi; [1]) was 3% and the inhibition at 1 g/ha (Phakopsora pachyrhizi; [2]) was 54%. It also gave an inhibition at 5 ppm (Septoria tritici; single active, 72 hrs, 24° C.) of 20%, an inhibition at 10 ppm (Septoria tritici; single active, 10 ppm, 72 hrs, 24° C.) of 20% and an inhibition at 20 ppm (Septoria tritici; single active, 20 ppm, 72 hrs, 24° C.) of 50%.
In the case of `C[C@@H]1CC(C)(C)c2cccc(NC(=O)c3cn(C)nc3C(F)F)c21` [Inpyrfluxam, 3-(difluoromethyl)-1-methyl-N-[(3R)-1,1,3-trimethylindan-4-yl]pyrazole-4-carboxamide, reference compound], the inhibition at 0.01 ppm (Corynespora cassiicola) is reported as 0%, the inhibition at 0.02 ppm (Corynespora cassiicola) is reported as 0% and the inhibition at 0.25 g/ha (Phakopsora pachyrhizi; read-out: Observed Activity (%), single active, 0.25 g/ha) is reported as 50%. The “Observed Activity (%)” value (Phakopsora pachyrhizi; single active, 0.5 g/ha) was 46% and 82%, the inhibition at 0.02 ppm (Septoria tritici; 72 h) was 0% and the inhibition at 0.04 ppm (Septoria tritici; 72 h) was 20%.
Work on `CNC(=S)c1ccc(-c2noc(C(F)(F)F)n2)cc1` [Compound A-1.2, N-methyl-4-[5-(trifluoromethyl)-1,2,4-oxadiazol-3-yl]benzenecarbothioamide] yielded an inhibition at 5 ppm (Corynespora cassiicola; single active, 5 ppm, 3-4 days, 24° C.) of 0%, an inhibition at 10 ppm (Corynespora cassiicola; single active, 10 ppm, 3-4 days, 24° C.) of 0% and an inhibition at 20 ppm (Corynespora cassiicola; single active, 20 ppm, 3-4 days, 24° C.) of 0%. It also gave an inhibition at 0.5 g/ha (Phakopsora pachyrhizi; [1]) of 0%, an inhibition at 1 g/ha (Phakopsora pachyrhizi; [2]) of 88% and an inhibition at 2 g/ha (Phakopsora pachyrhizi; [2]) of 95%. It also gave an inhibition at 5 ppm (Septoria tritici; single active, 72 hrs, 24° C.) of 50%.
